In US20220160666A1, “COMPOSITIONS FOR USE IN SURGERY” (BTG INTERNATIONAL LIMITED, priority 2004, published 2022):

Columns and labels:
[1] = tested on: brain field potentials (EEG power spectrum); conditions: rats, cited from earlier work; for change of EEG theta, alpha1,2 and beta1,2 power: α2-adrenoceptor agonists, Dimpfel and Schober, 2001; for change of EEG alpha1,2 and beta1,2 power: general anaesthetics, Dimpfel, 2003
[2] = tested on: electrical activity of the human brain; assay: Quantitative EEG (CATEEM) during and after 24 h intravenous infusion in healthy male volunteers, placebo-controlled crossover; assay type: in vivo; conditions: 300 mg/kg iv over 24 h
Source text: The present inventors have now studied the effect of ketosis, in the exemplified case induced by administration of sodium salt of (R)-3-hydroxybutyrate (herein referred to as KTX 0101) as a single intravenous infusion of increasing dose and duration to 3 groups (Parts A, B and C) with 3 cohorts of 3 subjects each in Part A, and 1 cohort in each of Parts B (n=3) and C (n=8). Parts A and B were a partial crossover design and Part C was a crossover design. For details see protocol.
A 17-electrode EEG was recorded pre-dose and at 6, 12 and 24 h during the infusion and 1 and 24 hours following the end of drug administration. Recordings were performed under two physiological conditions, namely with 5 minutes eyes open and eyes closed, respectively. KTX 0101 was administered intravenously at a dose of 300 mg/kg given over 24 hours to 1 cohort (n=8) in a double blind placebo controlled crossover design (Part C of the study).
Single rising doses of KTX 0101 or placebo were administered to groups of healthy male volunteers according to a pre-specified dose escalation schedule (see main report). Incremental doses were administered in a stepwise manner proceeding to each higher dose only if the drug was well tolerated and the criteria for stopping dosing had not been met. The last two cohorts obtained the highest doses of 300 mg/kg and consisted of enough volunteers to justify a preliminary evaluation of recorded EEG data in order to obtain information on the pharmacodynamic effects of the potential drug. After recording of pre dose values the infusion was started and continued for 24 hours. EEG recordings took place during the infusion (6, 12 and 24 h) and 1 and 24 h after the end of the infusion. Each recording period was performed under 5 minutes eyes open and 5 minutes of eyes closed condition.
The EEG was recorded bipolarly from 17 surface electrodes according to the international 10/20 system with Cz as a physical reference electrode (Computer aided topographical electro-encephalo-metry: CATEEM® from MediSyst GmbH, 35440 Linden, Germany), using an electrocap. The raw signals were amplified, digitized (2048 Hz/12 bit) and transmitted via fiber optical devices to the computer. […] ECG and EOG were recorded in one channel each in order to facilitate detection of those signals superposing on to the EEG. […] The amount of rejected data was determined automatically and given in percent of total recording time. […] The data was recorded under two physiological conditions over a period of 5 minutes each (eyes open and eyes closed).
Using a Lagrange interpolation, signals from 82 additional virtual electrodes were calculated to provide high resolution topographical maps. […] Data were analysed from 0.86 to 35 Hz using the CATEEM® software. […]

Compound | change of EEG theta, alpha1,2 and beta1,2 power [1] | change of EEG alpha1,2 and beta1,2 power [1] | other results
N=C(N)NC(=O)Cc1c(Cl)cccc1Cl [guanfacine] | Combined increases in theta, alpha1,2 and beta1,2 power |  | 
isoflurothane |  | combined increases in alpha1,2 and beta1,2 power | 
FC(F)(F)C(Cl)Br (stereo not shown) [halothane] |  | combined increases in alpha1,2 and beta1,2 power | 
C[C@@H](O)CC(=O)[O-].[Na+] [KTX 0101, sodium salt of (R)-3-hydroxybutyrate] |  |  | time after end of infusion up to which EEG changes could be traced [2]: up to 24 hours; change of EEG electrical power relative to pre-drug values ([2]; averaged over 15 electrode positions, during and after infusion): increases of electrical power were observed, especially with respect to theta, alpha and beta power; change of EEG electrical power relative to pre-dose values ([2]; eyes closed, centro-parietal regions, theta, alpha1, alpha2 and beta 1 ranges): increases of electrical power could be observed for the 6 h time period, less for the 12 h period but consistently thereafter; change of EEG electrical power relative to pre-dose values ([2]; eyes open, single electrode positions (FIG. 1)): an increase of delta and theta power as well as of alpha power is observed
COc1nc(C)nc(Cl)c1N=C1NCCN1 [maxonidine] | Combined increases in theta, alpha1,2 and beta1,2 power |  | 
FC(F)OC(F)(F)C(F)Cl (stereo not shown) [enflurane] |  | combined increases in alpha1,2 and beta1,2 power | 
FC(F)OC(F)C(F)(F)F (stereo not shown) [desflurane] |  | combined increases in alpha1,2 and beta1,2 power | 
Clc1cccc(Cl)c1N=C1NCCN1 [clonidine] | Combined increases in theta, alpha1,2 and beta1,2 power |  | 
CC(Oc1c(Cl)cccc1Cl)C1=NCCN1 (single isomer, unassigned; (-)) [(-)lofexidine] | Combined increases in theta, alpha1,2 and beta1,2 power |  | 
Cc1cccc(C(C)c2c[nH]cn2)c1C (stereo not shown) [metedomidine] | Combined increases in theta, alpha1,2 and beta1,2 power |  | 
